Data reported in article PMC9037210, “Novel 3-(6-methylpyridin-2-yl)coumarin-based chalcones as selective inhibitors of cancer-related carbonic anhydrases IX and XII endowed with anti-proliferative activity” (Journal of Enzyme Inhibition and Medicinal Chemistry, 2022).

Key:
HS 578 T = assay: NCI single (10 µM) dose SRB screening, HS 578 T; assay type: cell-based, human; conditions: 10 µM single dose, Breast cancer
Description: (§1) Following NCI protocol, sixteen MPCs were screened for their potential in vitro anticancer effects against human 59 cancer cell panels including prostate, leukaemia melanoma, colon, breast, CNS, renal, NSCLC, and ovarian cancers by National Cancer Institute (USA)[30].
(§2) The antiproliferative activities of MPC 3 and MPCs 5a–o were first evaluated in a 10 µM dose assay, with SRB assay used to determine cell survival and proliferation. […] The results of the cell growth inhibitory activities for MPCs 5g and 5l towards the different treated tumour cell lines were presented as GI% and presented in Table 3.
(§3) The anticancer test was conducted using the methods of the Drug Evaluation Branch, National Cancer Institute, Bethesda, MD, using 59 human tumour cell lines derived from nine human tissues. The GI50, TGI, and LC50 dose-response parameters were calculated for each medication.

OVCAR-4 = assay: NCI single (10 µM) dose SRB screening, OVCAR-4; assay type: cell-based, human; conditions: 10 µM single dose, OVCAR-4, Ovarian cancer
Description: as §1, §2, §3

DU-145 = assay: NCI single (10 µM) dose SRB screening, DU-145; assay type: cell-based, human; conditions: 10 µM single dose, DU-145, Prostate cancer
Description: as §1, §2, §3

786-0 = assay: NCI single (10 µM) dose SRB screening, 786-0; assay type: cell-based, human; conditions: 10 µM single dose, 786-0, Renal cancer
Description: as §1, §2, §3

hCA I = molecular target: T1, hCA I (Homo sapiens, UniProt P00915); assay: stopped-flow CO2 hydrase assay, hCA I; assay type: biochemical; conditions: stopped-flow, incubation time of 6 h, mean of three assays; read-out: KI CA I
T1 construct: made in house
Description: (§4) The newly synthesised MPCs (3 and 5a–o) were assessed for their CA inhibition activity employing the stopped-flow CO2 hydrase assay[29] for constitutional hCA (I/II) isoforms and cancer-linked hCA (IX/XII) isoforms.
(§5) The CA inhibition activity for the herein reported MPC derivatives was evaluated against the hCA isoforms I, II, IX, and XII using stopped-flow CO2 hydrase test[7]^,[33–36] (see the Supplementary Material).
(§6) Carbonic anhydrase inhibition assay
(§7) The carbonic anhydrase catalyzed CO2 hydration actions for all coumarin-based […]
(§8) Photophysics stopped-flow. The enzymes are recombinant proteins prepared in our lab. Phenol red (at a concentration of 0.2 mM) has been used as indicator, working at […]
(§9) mM Na2SO4 (for maintaining constant the ionic strength), following the initial rates of the CA-catalyzed CO2 hydration reaction for a period of 10-100 s. The CO2 concentrations ranged from 1.7 to 17 mM for the determination of the kinetic parameters and inhibition constants. For each inhibitor at least six traces of the initial 5-10% of the reaction have been used for determining the initial velocity. The uncatalyzed rates were determined in the same manner and subtracted from the total observed rates. Stock solutions of inhibitor (0.1 mM) were prepared in distilled-deionized water and dilutions up to 0.01 nM were done thereafter with the assay buffer. Inhibitor and enzyme solutions were preincubated together for 6 hrs. at room temperature prior to assay, in order to allow for the formation of the E-I complex. The inhibition constants were obtained by non-linear least-squares methods using PRISM 3 and the Cheng-Prusoff equation, and represent the mean from at least three different

RXF 393 = assay: NCI single (10 µM) dose SRB screening, RXF 393; assay type: cell-based, human; conditions: 10 µM single dose, RXF 393, Renal cancer
Description: as §1, §2, §3

HCT-15 = assay: NCI single (10 µM) dose SRB screening, HCT-15; assay type: cell-based, human; conditions: 10 µM single dose, HCT-15, Colon cancer
Description: as §1, §2, §3

U251 = assay: NCI single (10 µM) dose SRB screening, U251; assay type: cell-based, human; conditions: 10 µM single dose, U251, CNS cancer
Description: as §1, §2, §3

MOLT-4 = assay: NCI single (10 µM) dose SRB screening, MOLT-4; assay type: cell-based, human; conditions: 10 µM single dose, MOLT-4, Leukaemia
Description: as §1, §2, §3

SN 12 C = assay: NCI single (10 µM) dose SRB screening, SN 12 C; assay type: cell-based, human; conditions: 10 µM single dose, Renal cancer
Description: as §1, §2, §3

M14 = assay: NCI single (10 µM) dose SRB screening, M14; assay type: cell-based, human; conditions: 10 µM single dose, M14, Melanoma
Description: as §1, §2, §3

SF-268 = assay: NCI single (10 µM) dose SRB screening, SF-268; assay type: cell-based, human; conditions: 10 µM single dose, SF-268, CNS cancer
Description: as §1, §2, §3

NCI-H23 = assay: NCI single (10 µM) dose SRB screening, NCI-H23; assay type: cell-based, human; conditions: 10 µM single dose, NCI-H23, NSC lung cancer
Description: as §1, §2, §3

T-47D = assay: NCI single (10 µM) dose SRB screening, T-47D; assay type: cell-based, human; conditions: 10 µM single dose, Breast cancer
Description: as §1, §2, §3

UACC-62 = assay: NCI single (10 µM) dose SRB screening, UACC-62; assay type: cell-based, human; conditions: 10 µM single dose, UACC-62, Melanoma
Description: as §1, §2, §3

COLO 205 = assay: NCI single (10 µM) dose SRB screening, COLO 205; assay type: cell-based, human; conditions: 10 µM single dose, COLO 205, Colon cancer
Description: as §1, §2, §3

[1] = test system: 59 human tumour cell lines; assay: NCI single (10 µM) dose screening, whole panel; assay type: cell-based; conditions: 10 µM single dose; for Sensitive cells no.: number of the 59 cell lines with GI % more than 20%; for inhibition at 10 µM: Homo sapiens, SRB assay, mean over NCI panel, read-out: mean percentage growth inhibition (mean% GI)
Description: as §1, §2, §3

SW-620 = assay: NCI single (10 µM) dose SRB screening, SW-620; assay type: cell-based, human; conditions: 10 µM single dose, SW-620, Colon cancer
Description: as §1, §2, §3

LOX IMVI = assay: NCI single (10 µM) dose SRB screening, LOX IMVI; assay type: cell-based, human; conditions: 10 µM single dose, Melanoma
Description: as §1, §2, §3

hCA II = molecular target: T2, hCA II (Homo sapiens, UniProt P00918); assay: stopped-flow CO2 hydrase assay, hCA II; assay type: biochemical; conditions: incubation time of 6 h, mean of three assays, read-out: KI CA II
T2 construct: made in house
Description: as §4, §5, §6, §7, §8, §9

HT29 = assay: NCI single (10 µM) dose SRB screening, HT29; assay type: cell-based, human; conditions: 10 µM single dose, HT29, Colon cancer
Description: as §1, §2, §3

SK-MEL-28 = assay: NCI single (10 µM) dose SRB screening, SK-MEL-28; assay type: cell-based, human; conditions: 10 µM single dose, SK-MEL-28, Melanoma
Description: as §1, §2, §3

SF-295 = assay: NCI single (10 µM) dose SRB screening, SF-295; assay type: cell-based, human; conditions: 10 µM single dose, SF-295, CNS cancer
Description: as §1, §2, §3

A498 = assay: NCI single (10 µM) dose SRB screening, A498; assay type: cell-based, human; conditions: 10 µM single dose, A498, Renal cancer
Description: as §1, §2, §3

MDA-MB-231 = assay: NCI single (10 µM) dose SRB screening, MDA-MB-231; assay type: cell-based, human; conditions: 10 µM single dose, MDA-MB-231, Breast cancer
Description: as §1, §2, §3

HOP-92 = assay: NCI single (10 µM) dose SRB screening, HOP-92; assay type: cell-based, human; conditions: 10 µM single dose, HOP-92, NSC lung cancer
Description: as §1, §2, §3

SK-MEL-5 = assay: NCI single (10 µM) dose SRB screening, SK-MEL-5; assay type: cell-based, human; conditions: 10 µM single dose, SK-MEL-5, Melanoma
Description: as §1, §2, §3

SK-MEL-2 = assay: NCI single (10 µM) dose SRB screening, SK-MEL-2; assay type: cell-based, human; conditions: 10 µM single dose, SK-MEL-2, Melanoma
Description: as §1, §2, §3

T1 sequence (P00915 whole entry): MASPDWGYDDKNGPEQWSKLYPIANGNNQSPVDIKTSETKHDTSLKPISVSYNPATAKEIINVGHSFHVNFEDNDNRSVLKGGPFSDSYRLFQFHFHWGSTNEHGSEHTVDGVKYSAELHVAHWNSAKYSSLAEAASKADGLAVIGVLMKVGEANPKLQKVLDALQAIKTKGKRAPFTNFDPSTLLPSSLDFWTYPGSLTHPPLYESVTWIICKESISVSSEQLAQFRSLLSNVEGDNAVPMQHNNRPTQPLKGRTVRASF

| Structure (SMILES) | GI % (HS 578 T) | GI % (OVCAR-4) | GI % (DU-145) | GI % (786-0) [%] | Ki (hCA I) [µM] | GI % (RXF 393) | GI % (HCT-15) [%] | GI % (U251) | GI % (MOLT-4) [%] | GI % (SN 12 C) | GI % (M14) | GI % (SF-268) [%] | GI % (NCI-H23) | GI % (T-47D) | GI % (UACC-62) [%] | GI % (COLO 205) | Sensitive cells no. [1] | inhibition at 10 µM [1] [%] | GI % (SW-620) | GI % (LOX IMVI) [%] | other results |
| --- | --- | --- | --- | --- | --- | --- | --- | --- | --- | --- | --- | --- | --- | --- | --- | --- | --- | --- | --- | --- | --- |
| Cc1nc(-c2cc3ccccc3oc2=O)ccc1C(=O)/C=C/c1ccc(N2CCOCC2)cc1 [Compound 5g, 3-(6-Methyl-5-[(2E)-3-[4-(morpholin-4-yl)phenyl]prop-2-enoyl]pyridin-2-yl)-2H-chromen-2-one] | 40% | 27% | – (Only GI % more than 20% are displayed.) | 24 | > 100 | – (Only GI % more than 20% are displayed.) | 45 | – (Only GI % more than 20% are displayed.) | 33 | – (Only GI % more than 20% are displayed.) | 54% | 24 | – (Only GI % more than 20% are displayed.) | – (Only GI % more than 20% are displayed.) | 47 | – (Only GI % more than 20% are displayed.) | 31 | 28 | – (Only GI % more than 20% are displayed.) | 68 | Ki (hCA II): > 100 µM; GI % (HT29): – (Only GI % more than 20% are displayed.); GI % (SK-MEL-28): 27%; GI % (SF-295): 33%; GI % (A498): 24%; GI % (MDA-MB-231): 45%; GI % (HOP-92): – (Only GI % more than 20% are displayed.); GI % (SK-MEL-5): 28%; GI % (SK-MEL-2): – (Only GI % more than 20% are displayed.) |
| Cc1nc(-c2cc3ccccc3oc2=O)ccc1C(=O)/C=C/c1ccccn1 [Compound 5l, 3-(6-Methyl-5-[(2E)-3-(pyridin-2-yl)prop-2-enoyl]pyridin-2-yl)-2H-chromen-2-one] | – (Only GI % more than 20% are displayed.) | – (Only GI % more than 20% are displayed.) | 52% | 93 | > 100 | 67% | 133 | 92% | 72 | 52% | – (Only GI % more than 20% are displayed.) | 21 | 44% | 47% | 28 | – (Only GI % more than 20% are displayed.) | 42 | 50 | 98% | 184 | Ki (hCA II): > 100 µM; GI % (HT29): 97%; GI % (SK-MEL-28): – (Only GI % more than 20% are displayed.); GI % (SF-295): 28%; GI % (A498): – (Only GI % more than 20% are displayed.); GI % (MDA-MB-231): 87%; GI % (HOP-92): – (Only GI % more than 20% are displayed.); GI % (SK-MEL-5): – (Only GI % more than 20% are displayed.); GI % (SK-MEL-2): – (Only GI % more than 20% are displayed.) |
